Among the data in US20250002507A1, “7,8-DIHYDRO-5H-1,6-NAPHTHYRIDINE DERIVATIVES AS POSITIVE ALLOSTERIC MODULATORS OF THE MUSCARINIC ACETYLCHOLINE RECEPTOR M4 FOR TREATING NEUROLOGICAL AND PSYCHIATRIC DISORDERS” (Vanderbilt University, priority 2021, published 2025) are Emax and EC50 values, retold here.

The term Emax denotes the size of the effect at its maximum, as opposed to the concentration needed. The term pEC50 denotes the negative decadic logarithm of the EC50, by convention in mol/L.

pEC50: −log10 of the molar value.

The experiment has as its target T1, Human M4 (Homo sapiens, UniProt P08173).
T1 construct: expressed in transfected cells
T1 sequence (P08173 1-479): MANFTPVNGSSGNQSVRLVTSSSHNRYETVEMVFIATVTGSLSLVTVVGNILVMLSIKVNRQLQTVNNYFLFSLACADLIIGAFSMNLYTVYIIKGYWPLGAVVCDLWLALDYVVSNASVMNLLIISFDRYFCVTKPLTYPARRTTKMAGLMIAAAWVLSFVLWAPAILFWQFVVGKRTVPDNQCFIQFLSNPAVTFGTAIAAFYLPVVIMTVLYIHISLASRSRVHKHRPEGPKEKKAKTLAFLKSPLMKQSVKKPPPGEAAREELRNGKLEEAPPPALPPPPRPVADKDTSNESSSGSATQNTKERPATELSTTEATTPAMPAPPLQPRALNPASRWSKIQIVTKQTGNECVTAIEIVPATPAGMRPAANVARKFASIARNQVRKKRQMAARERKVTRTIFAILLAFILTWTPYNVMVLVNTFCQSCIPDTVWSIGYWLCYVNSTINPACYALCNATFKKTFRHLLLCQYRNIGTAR
Briefly: mAChR M4 cell-based functional assay (calcium flux, potentiation of EC20 acetylcholine response), hM4-Gqi5 CHO-K1 cells. Particulars: Table 3; for Emax at 30 µM: CHO-K1, Human M4, % ACh maximum at 30 μM, read-out: Emax (% ACh maximum at 30 μM); for pEC50: potentiation of EC20 acetylcholine response, calcium flux, CHO-K1 cells, read-out: Human M4 EC50. The gist of the method: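 CHO-K1 cells stably expressing human M4 with chimeric Gqi5, loaded with Fluo-4 AM 50 min at 37 °C; calcium flux read by FDSS. 11-point 1:3 compound curves added, then EC20 acetylcholine at 144 s; potentiation of the EC20 response fitted by four-parameter logistic to give EC50 and Emax.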
In general terms: Calcium assays in cells follow changes in intracellular calcium, usually with a dye or a luminescent sensor.

On to `Cc1c(N2CCc3ncc(N4CCOCC4)cc3C2)nn2c(C(F)(F)F)nnc2c1C` [Compound 271, 4-(6-(7,8-dimethyl-3-(trifluoromethyl)-[1,2,4]triazolo[4,3-b]pyridazin-6-yl)-5,6,7,8-tetrahydro-1,6-naphthyridin-3-yl)morpholine], for which the Emax at 30 µM turned out to be 89% and the pEC50 is 6.58.

For the compound `Cc1c(N2CCc3ncc(NC4CCCC4)cc3C2)nn2c(C(F)(F)F)nnc2c1C` [Compound 272, N-cyclopentyl-6-(7,8-dimethyl-3-(trifluoromethyl)-[1,2,4]triazolo[4,3-b]pyridazin-6-yl)-5,6,7,8-tetrahydro-1,6-naphthyridin-3-amine], the Emax at 30 µM turned out to be 87% and the pEC50 was 6.08.

On to `Cc1c(N2CCc3ncc(N4CCC5OCCCC5C4)cc3C2)nn2c(C(F)(F)F)nnc2c1C` (stereo not shown) [Compound 273, 6-(6-(7,8-dimethyl-3-(trifluoromethyl)-[1,2,4]triazolo[4,3-b]pyridazin-6-yl)-5,6,7,8-tetrahydro-1,6-naphthyridin-3-yl)octahydro-2H-pyrano[3,2-c]pyridine], for which the Emax at 30 µM turned out to be 83% and the negative-log EC50 (pEC50) was 6.09.

`Cc1c(N2CCc3ncc(N4CCC5(CC4)COC5)cc3C2)nn2c(C(F)(F)F)nnc2c1C` [Compound 274, 7-(6-(7,8-dimethyl-3-(trifluoromethyl)-[1,2,4]triazolo[4,3-b]pyridazin-6-yl)-5,6,7,8-tetrahydro-1,6-naphthyridin-3-yl)-2-oxa-7-azaspiro[3.5]nonane]: the Emax at 30 µM was 65% and the negative-log EC50 (pEC50) was 5.48.

Consider `Cc1c(N2CCc3ncc(N4CCCC4)cc3C2)nn2c(C(F)(F)F)nnc2c1C` [Compound 275, 6-(7,8-dimethyl-3-(trifluoromethyl)-[1,2,4]triazolo[4,3-b]pyridazin-6-yl)-3-(pyrrolidin-1-yl)-5,6,7,8-tetrahydro-1,6-naphthyridine], for which the Emax at 30 µM was 74% and the pEC50 was 6.03.

`Cc1c(N2CCc3ncc(N4CCN(C)CC4)cc3C2)nn2c(C(F)(F)F)nnc2c1C` [Compound 276, 6-(7,8-dimethyl-3-(trifluoromethyl)-[1,2,4]triazolo[4,3-b]pyridazin-6-yl)-3-(4-methylpiperazin-1-yl)-5,6,7,8-tetrahydro-1,6-naphthyridine]: the maximum response (Emax) at 30 µM came out at 65% and the pEC50 was 5.71.

As to `Cc1c(N2CCc3ncc(Oc4ccccc4F)cc3C2)nn2c(C(F)(F)F)nnc2c1C` [Compound 277, 6-(7,8-dimethyl-3-(trifluoromethyl)-[1,2,4]triazolo[4,3-b]pyridazin-6-yl)-3-(2-fluorophenoxy)-5,6,7,8-tetrahydro-1,6-naphthyridine], the Emax at 30 µM is 85% and the negative-log EC50 (pEC50) is 6.41.

With `Cc1c(N2CCc3ncc(Oc4cccc(F)c4)cc3C2)nn2c(C(F)(F)F)nnc2c1C` [Compound 278, 6-(7,8-dimethyl-3-(trifluoromethyl)-[1,2,4]triazolo[4,3-b]pyridazin-6-yl)-3-(3-fluorophenoxy)-5,6,7,8-tetrahydro-1,6-naphthyridine], the Emax at 30 µM is 84% and the negative logarithm of the EC50 (pEC50) is 6.08.

As for `Cc1c(N2CCc3ncc(NC4CCOC4)cc3C2)nn2c(C(F)(F)F)nnc2c1C` (stereo not shown) [Compound 279, 6-(7,8-dimethyl-3-(trifluoromethyl)-[1,2,4]triazolo[4,3-b]pyridazin-6-yl)-N-(tetrahydrofuran-3-yl)-5,6,7,8-tetrahydro-1,6-naphthyridin-3-amine], the Emax at 30 µM amounted to 86% and the negative-log EC50 (pEC50) was 6.00.

On to `Cc1c(N2CCc3ncc(N4CCC(F)(F)CC4)cc3C2)nn2c(C(F)(F)F)nnc2c1C` [Compound 280, 3-(4,4-difluoropiperidin-1-yl)-6-(7,8-dimethyl-3-(trifluoromethyl)-[1,2,4]triazolo[4,3-b]pyridazin-6-yl)-5,6,7,8-tetrahydro-1,6-naphthyridine], for which the maximal response (Emax) at 30 µM amounted to 85% and the negative-log EC50 (pEC50) was 6.16.

On to `Cc1c(N2CCc3ncc(N4CCCCC4)cc3C2)nn2c(C(F)(F)F)nnc2c1C` [Compound 281, 6-(7,8-dimethyl-3-(trifluoromethyl)-[1,2,4]triazolo[4,3-b]pyridazin-6-yl)-3-(piperidin-1-yl)-5,6,7,8-tetrahydro-1,6-naphthyridine], for which the Emax at 30 µM turned out to be 76% and the negative logarithm of the EC50 (pEC50) was 6.13.

As to `Cc1c(N2CCc3ncc(N4CCOc5ncccc54)cc3C2)nn2c(C(F)(F)F)nnc2c1C` [Compound 282, 1-(6-(7,8-dimethyl-3-(trifluoromethyl)-[1,2,4]triazolo[4,3-b]pyridazin-6-yl)-5,6,7,8-tetrahydro-1,6-naphthyridin-3-yl)-2,3-dihydro-1H-pyrido[2,3-b][1,4]oxazine], the maximal response (Emax) at 30 µM was 87% and the negative-log EC50 (pEC50) was 7.19.

With `Cc1c(N2CCc3nnc(Cl)cc3C2)nn2c(C(F)(F)F)nnc2c1C` [Compound 283, 3-chloro-6-(7,8-dimethyl-3-(trifluoromethyl)-[1,2,4]triazolo[4,3-b]pyridazin-6-yl)-5,6,7,8-tetrahydropyrido[4,3-c]pyridazine], the Emax at 30 µM turned out to be 89% and the negative-log EC50 (pEC50) was 5.66.

On to `Cc1c(N2CCc3ncc(N4CCCn5nccc54)cc3C2)nn2c(Cl)nnc2c1C` [Compound 284, 6-(3-chloro-7,8-dimethyl-[1,2,4]triazolo[4,3-b]pyridazin-6-yl)-3-(6,7-dihydropyrazolo[1,5-a]pyrimidin-4(5H)-yl)-5,6,7,8-tetrahydro-1,6-naphthyridine], for which the maximal response (Emax) at 30 µM is 53% and the pEC50 is 6.26.

Turning to `Cc1c(N2CCc3ncc(C(F)c4ccccc4)cc3C2)nn2c(C(F)(F)F)nnc2c1C` (stereo not shown) [Compound 285, 6-(7,8-dimethyl-3-(trifluoromethyl)-[1,2,4]triazolo[4,3-b]pyridazin-6-yl)-3-(fluoro(phenyl)methyl)-5,6,7,8-tetrahydro-1,6-naphthyridine], the Emax at 30 µM is 88% and the negative logarithm of the EC50 (pEC50) is 5.98.

As for `Cc1c(N2CCc3ncc(N4CCOC(C)(C)C4)cc3C2)nn2c(C(F)(F)F)nnc2c1C` [Compound 286, 4-(6-(7,8-dimethyl-3-(trifluoromethyl)-[1,2,4]triazolo[4,3-b]pyridazin-6-yl)-5,6,7,8-tetrahydro-1,6-naphthyridin-3-yl)-2,2-dimethylmorpholine], the Emax at 30 µM was determined as 94% and the pEC50 was 6.99.

For `COC1CCN(c2cnc3c(c2)CN(c2nn4c(C(F)(F)F)nnc4cc2C)CC3)C1` (stereo not shown) [Compound 287, 3-(3-methoxypyrrolidin-1-yl)-6-(7-methyl-3-(trifluoromethyl)-[1,2,4]triazolo[4,3-b]pyridazin-6-yl)-5,6,7,8-tetrahydro-1,6-naphthyridine], the Emax at 30 µM was found to be 82% and the negative-log EC50 (pEC50) is 5.63.

As for `COC1CCN(c2cnc3c(c2)CN(c2nn4c(C(F)(F)F)nnc4c(C)c2C)CC3)C1` (stereo not shown) [Compound 288, 6-(7,8-dimethyl-3-(trifluoromethyl)-[1,2,4]triazolo[4,3-b]pyridazin-6-yl)-3-(3-methoxypyrrolidin-1-yl)-5,6,7,8-tetrahydro-1,6-naphthyridine], the Emax at 30 µM was found to be 77% and the pEC50 is 6.03.

With `Cc1ccc(Oc2cnc3c(c2)CN(c2nn4cnnc4c(C)c2C)CC3)c(F)c1` [Compound 289, 6-(7,8-dimethyl-[1,2,4]triazolo[4,3-b]pyridazin-6-yl)-3-(2-fluoro-4-methylphenoxy)-5,6,7,8-tetrahydro-1,6-naphthyridine], the maximal effect (Emax) at 30 µM was determined as 102% and the negative logarithm of the EC50 (pEC50) was 6.58.

Consider `Cc1ccc(Oc2cnc3c(c2)CN(c2nn4c(C(F)(F)F)nnc4cc2C)CC3)c(F)c1` [Compound 290, 3-(2-fluoro-4-methylphenoxy)-6-(7-methyl-3-(trifluoromethyl)-[1,2,4]triazolo[4,3-b]pyridazin-6-yl)-5,6,7,8-tetrahydro-1,6-naphthyridine], for which the maximum response (Emax) at 30 µM is 69% and the pEC50 was 5.77.

With `Cc1ccc(Oc2cnc3c(c2)CN(c2nn4c(C(F)(F)F)nnc4c(C)c2C)CC3)c(F)c1` [Compound 291, 6-(7,8-dimethyl-3-(trifluoromethyl)-[1,2,4]triazolo[4,3-b]pyridazin-6-yl)-3-(2-fluoro-4-methylphenoxy)-5,6,7,8-tetrahydro-1,6-naphthyridine], the maximal response (Emax) at 30 µM came to 67% and the pEC50 is 5.73.

Regarding `COC1CCCN(c2cnc3c(c2)CN(c2nn4c(C(F)(F)F)nnc4c(C)c2C)CC3)C1` (stereo not shown) [Compound 292, 6-(7,8-dimethyl-3-(trifluoromethyl)-[1,2,4]triazolo[4,3-b]pyridazin-6-yl)-3-(3-methoxypiperidin-1-yl)-5,6,7,8-tetrahydro-1,6-naphthyridine], the maximal effect (Emax) at 30 µM is 106% and the negative-log EC50 (pEC50) was 6.25.

As to `Cc1cc2nncn2nc1N1CCc2ncc(Oc3ccc(F)cc3F)cc2C1` [Compound 293, 3-(2,4-difluorophenoxy)-6-(7-methyl-[1,2,4]triazolo[4,3-b]pyridazin-6-yl)-5,6,7,8-tetrahydro-1,6-naphthyridine], the Emax at 30 µM came out at 96% and the negative logarithm of the EC50 (pEC50) is 6.81.
